US20070015132A1 (priority 2001, published 2007)

Assays:
[1] = tested on: Mouse fibroblast cells (ATCC CRL-10225); assay: Glucose and lactate metabolic rate of fibroblast cells exposed to toxicants in 24-well plate; settings: 6 hours; for glucose metabolic rate / lactate metabolic rate: different concentrations; for cell death on exposure: trypan blue exclusion
[2] = tested on: Mouse fibroblast cells (ATCC CRL-10225); assay type: cell-based

SMILES | glucose metabolic rate [1] | lactate metabolic rate [1] | cell death on exposure [1] | effect on medium acidification rate at low concentrations [2] | effect on medium acidification rate with concentration increasing [2] | cell death on exposure ([1]; concentration 10 mM)
O=[N+]([O-])c1ccc(O)c([N+](=O)[O-])c1 [2,4-dinitrophenol] | opposite impact | opposite impact | not observed | stimulate | stimulation effects become weak until inhibition effects are observed | 
[F-].[Na+] [fluoride, sodium fluoride] | inhibited in concentration dependent manner | inhibited in concentration dependent manner |  |  |  | all cells died
